Data taken from patent publication US20040023907A1, “Infection model” (priority 2000, published 2004).
“Also recorded” adds a separate entry of the source.

How the values were obtained:
[1] = system: candida albicans (virulent strain Sc5314, avirulent strain Can34); experiment: Influence of antimycotics on adhesion of candida albicans to in vitro skin and intestinal test systems (co-cultivation, colony count); assay type: cell-based; details: for influence on growth rates of the pathogen: co-cultivation with in vitro skin and intestinal test systems in presence of antimycotic; for influence on the adhesion of the pathogen: human in vitro skin and intestinal test systems, submerse culture, antimycotic 0.1, 0.5, 1.0, 2.0 μg/μl, colony count vs samples without antimycotic
Description: In an especially preferred embodiment, the present invention relates to the co-cultivation of the human-pathological microorganism candida albicans with the human in vitro skin test system or the human in vitro intestinal test system in order to investigate the first stage of the infection process, i.e. the adhesion of the pathogen to the skin or intestinal cells. The adhesion of the pathogen is investigated using the virulent candida strain Sc5314 and the avirulent candida strain Can34 that have already been studied in a mouse macrophage model (Longitudinal et al., Cell, 90 (1997), 939-949). The in vitro skin test system or the in vitro intestinal test system is in each case inoculated in submerse culture with about 10^3 pathogenic organisms and cultivated with shaking. At defined times, for example every 30 minutes (up to a maximum of 4 hours), aliquot amounts are removed and plated out into Petri dishes with appropriate nutrient media, for example YPD full medium (Difco). After an appropriate incubation time, the number of colonies in the Petri dishes is determined. The adhesion of the pathogens on the in vitro organ test systems can be determined based on the comparison between the determined colony count and the originally inoculated number of pathogens.
In a preferred embodiment, the method for investigating the adhesion of candida on the in vitro intestinal test system according to the invention and on the in vitro skin test system according to the invention is modified in such a way that the co-cultivation preparation contains an antimycotic, in particular amphothericin B or fluconazole.
In order to determine the adhesion of the pathogen on cells, 12 each inserts of the human in vitro skin test system held in submerse culture or 12 each inserts of the in vitro intestinal test system held in submerse culture were infected each with 10^3 pathogenic organisms of the virulent candida strain Sc5314 or of the avirulent candida strain Can34 (Longitudinal et al., Cell 90 (1997), […]). The inserts were then incubated with shaking at 37° C. for 30, 60, 90, 120, 150, or 180 min.
At the specified times, the supernatant was removed and plated out in Petri dishes with YPD nutrient medium. After an incubation period of 2 days, the colonies in the Petri dishes were counted. Based on the comparison between the determined colony count and originally inoculated number of pathogens, it was determined that approximately 95% of the virulent strain and 10% of the avirulent strain adhered to the in vitro skin model after 2 hours.
In order to determine the influence of antimycotics on the adhesion of candida albicans on skin and intestinal cells, 12 inserts of the in vitro skin test system held in submerse culture and 12 inserts of the in vitro intestinal test system each were infected with 10^3 pathogenic organisms of the virulent candida strain Sc5314 or the avirulent candida strain Can34. Amphotericin B was added to 5 inserts in a concentration of 0.1, 0.5, 1.0, and 2.0 μg/μl, and fluconazole was added to 5 inserts in a concentration of 0.1, 0.5, 1.0, and 2.0 μg/μl. The inserts were then incubated with shaking at 37° C. for up to 3 days.
After 16, 24, 72, 86, and 98 hours, aliquot amounts were removed and plated out in Petri dishes with YPD nutrient media. After an incubation period of 2 days, the colonies in the Petri dishes were counted.

[2] = system: candida albicans (virulent strain Sc5314, avirulent strain Can34); experiment: Influence of antimycotics on penetration/invasion of candida albicans into in vitro skin and intestinal test systems (histology, PAS staining); assay type: cell-based; details: human in vitro skin and intestinal test systems, antimycotic 0.1, 0.5, 1.0, 2.0 μg/μl, histology after approximately 18 to 24 hours
Description: In another particularly preferred embodiment, the present invention relates to the co-cultivation of the human-pathogenic microorganism candida albicans with the human in vitro skin test system prepared according to the invention or with the human in vitro intestinal test prepared according to the invention in order to investigate another stage of the infection process, i.e. the penetration/invasion of the pathogen into cells. For this, the organoid tissue test systems are co-cultivated using the airlift process with the previously described avirulent and virulent pathogen strains. The pathogen is preferably fixed with a cell count of 10^3/ml in 1% agar, and agar pieces with a diameter of 4 mm are placed onto the organoid tissue test systems for up to 98 hours. The penetration of the pathogen into the organoid structures was studied after 16 hours, 24 hours, 72 hours, 86 hours, and 98 hours using histological methods on thin sections, employing the PAS staining method (McManaus, Romeis, 17th ed., page 393). Using the histological sections, the invasion process of the virulent candida strain into the deeper layers of the connective-tissue-like matrix can be documented.
In another preferred embodiment, the method for investigating the penetration/invasion of candida with the in vitro intestinal test system and the in vitro skin test system was modified in such a way that the co-cultivation preparation contained amphothericin B or fluconazole.
In order to determine the penetration of the pathogen, 12 inserts of the in vitro skin system held in airlift culture and 12 inserts of the in vitro intestinal system held in airlift culture each were infected with 10^3 pathogenic organisms of the virulent candida strain Sc5314 or the avirulent candida strain Can34. The inserts then were incubated up to 3 days at 37° C.
The penetration of the pathogen into the organoid structures was investigated after about 18 to 24 hours using histological methods on thin sections, employing the PAS staining method both for the in vitro skin system as well as for the in vitro intestinal system. […]

C[C@@H]1[C@H](O)[C@@H](C)/C=C/C=C/C=C/C=C/C=C/C=C/C=C/[C@H](O[C@@H]2O[C@H](C)[C@@H](O)[C@H](N)[C@@H]2O)C[C@@H]2O[C@](O)(C[C@@H](O)C[C@@H](O)[C@H](O)CC[C@@H](O)C[C@@H](O)CC(=O)O[C@H]1C)C[C@H](O)[C@H]2C(=O)O [amphotericin B]
influence on growth rates of the pathogen [1]: influenced its growth rates
influence on the adhesion of the pathogen [1]: adhesion of the virulent candida strain could only be prevented by adding amphotericin B and fluconazole and by an inhibition of growth
influence on the adhesion of the pathogen ([1]; listed as amphothericin B): no influence on the adhesion of the pathogen
invasion (penetration) of the virulent candida strain into the organoid structures [2]: apparently prevents the invasion of the virulent candida strain by inhibiting its growth
invasion (penetration) of the virulent candida strain into the organoid structures ([2]; listed as amphothericin B): could only be prevented with a complete inhibition of growth

OC(Cn1cncn1)(Cn1cncn1)c1ccc(F)cc1F [fluconazole]
influence on growth rates of the pathogen [1]: influenced its growth rates
influence on the adhesion of the pathogen [1]: no influence on the adhesion of the pathogen; also recorded: adhesion of the virulent candida strain could only be prevented by adding amphotericin B and fluconazole and by an inhibition of growth
invasion (penetration) of the virulent candida strain into the organoid structures [2]: could only be prevented with a complete inhibition of growth; also recorded: apparently prevents the invasion of the virulent candida strain by inhibiting its growth
